Key:
[1] = molecular target: Maternal embryonic leucine zipper kinase (Homo sapiens) (UniProt Q14680); experiment: MELK SGC Tm panel (DSF); details: Compound concentration 20.0 uM
[2] = molecular target: T1, Zinc finger and BTB domain-containing protein 9 (Homo sapiens) (UniProt Q96C00); details: OCI-Ly1, Compound concentration 1.0 uM
T1 sequence (whole entry): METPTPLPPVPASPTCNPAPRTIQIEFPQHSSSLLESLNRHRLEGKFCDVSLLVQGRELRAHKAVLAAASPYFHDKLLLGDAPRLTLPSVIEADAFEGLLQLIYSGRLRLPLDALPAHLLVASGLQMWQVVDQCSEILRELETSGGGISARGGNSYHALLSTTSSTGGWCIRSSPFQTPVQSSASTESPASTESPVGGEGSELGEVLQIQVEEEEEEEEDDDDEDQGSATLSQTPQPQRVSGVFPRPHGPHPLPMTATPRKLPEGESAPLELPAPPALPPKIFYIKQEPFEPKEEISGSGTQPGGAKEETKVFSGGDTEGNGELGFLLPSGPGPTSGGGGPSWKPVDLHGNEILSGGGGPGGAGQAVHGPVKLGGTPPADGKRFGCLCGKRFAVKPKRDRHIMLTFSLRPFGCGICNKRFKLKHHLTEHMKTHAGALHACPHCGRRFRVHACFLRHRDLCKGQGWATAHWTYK

[3] = molecular target: T2, Zinc finger and BTB domain-containing protein 40 (Homo sapiens) (UniProt Q9NUA8); details: SUD4, Compound concentration 1.0 uM
T2 sequence (whole entry): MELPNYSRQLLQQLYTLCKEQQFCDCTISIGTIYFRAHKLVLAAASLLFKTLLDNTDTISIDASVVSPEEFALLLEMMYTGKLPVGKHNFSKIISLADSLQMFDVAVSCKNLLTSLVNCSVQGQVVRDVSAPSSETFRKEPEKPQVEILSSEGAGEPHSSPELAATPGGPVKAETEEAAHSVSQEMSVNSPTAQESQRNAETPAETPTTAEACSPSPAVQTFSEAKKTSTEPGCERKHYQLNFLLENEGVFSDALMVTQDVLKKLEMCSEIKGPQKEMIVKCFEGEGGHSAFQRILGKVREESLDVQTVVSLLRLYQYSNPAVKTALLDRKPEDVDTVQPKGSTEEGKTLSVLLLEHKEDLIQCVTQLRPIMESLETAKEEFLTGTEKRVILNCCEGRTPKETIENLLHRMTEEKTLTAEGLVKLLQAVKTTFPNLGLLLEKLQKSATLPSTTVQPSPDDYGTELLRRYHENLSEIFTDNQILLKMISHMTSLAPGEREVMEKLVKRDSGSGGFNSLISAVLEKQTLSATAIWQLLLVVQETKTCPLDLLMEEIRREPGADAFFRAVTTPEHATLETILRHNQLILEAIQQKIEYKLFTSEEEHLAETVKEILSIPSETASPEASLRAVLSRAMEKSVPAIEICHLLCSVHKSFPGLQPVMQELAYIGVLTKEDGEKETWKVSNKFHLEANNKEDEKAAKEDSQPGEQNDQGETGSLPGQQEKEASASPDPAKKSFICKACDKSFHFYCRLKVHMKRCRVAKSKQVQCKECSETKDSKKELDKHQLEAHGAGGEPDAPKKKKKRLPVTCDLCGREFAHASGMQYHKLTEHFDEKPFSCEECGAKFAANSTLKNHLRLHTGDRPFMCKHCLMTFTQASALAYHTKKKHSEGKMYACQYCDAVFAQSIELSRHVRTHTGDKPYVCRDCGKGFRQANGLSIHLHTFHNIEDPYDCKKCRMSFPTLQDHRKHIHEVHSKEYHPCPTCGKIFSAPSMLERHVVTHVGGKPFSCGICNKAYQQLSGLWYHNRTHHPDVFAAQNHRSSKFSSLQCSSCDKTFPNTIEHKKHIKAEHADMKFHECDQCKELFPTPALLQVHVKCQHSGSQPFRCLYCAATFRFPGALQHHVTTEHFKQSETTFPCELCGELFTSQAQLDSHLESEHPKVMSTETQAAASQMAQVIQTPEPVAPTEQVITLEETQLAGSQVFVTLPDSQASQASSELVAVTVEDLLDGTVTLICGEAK

[4] = molecular target: Serine/threonine-protein kinase B-raf (Homo sapiens) (UniProt P15056); experiment: BRAF SGC Tm panel (DSF); details: Compound concentration 20.0 uM
Chain of Serine/threonine-protein kinase B-raf (Homo sapiens) (P15056 whole entry): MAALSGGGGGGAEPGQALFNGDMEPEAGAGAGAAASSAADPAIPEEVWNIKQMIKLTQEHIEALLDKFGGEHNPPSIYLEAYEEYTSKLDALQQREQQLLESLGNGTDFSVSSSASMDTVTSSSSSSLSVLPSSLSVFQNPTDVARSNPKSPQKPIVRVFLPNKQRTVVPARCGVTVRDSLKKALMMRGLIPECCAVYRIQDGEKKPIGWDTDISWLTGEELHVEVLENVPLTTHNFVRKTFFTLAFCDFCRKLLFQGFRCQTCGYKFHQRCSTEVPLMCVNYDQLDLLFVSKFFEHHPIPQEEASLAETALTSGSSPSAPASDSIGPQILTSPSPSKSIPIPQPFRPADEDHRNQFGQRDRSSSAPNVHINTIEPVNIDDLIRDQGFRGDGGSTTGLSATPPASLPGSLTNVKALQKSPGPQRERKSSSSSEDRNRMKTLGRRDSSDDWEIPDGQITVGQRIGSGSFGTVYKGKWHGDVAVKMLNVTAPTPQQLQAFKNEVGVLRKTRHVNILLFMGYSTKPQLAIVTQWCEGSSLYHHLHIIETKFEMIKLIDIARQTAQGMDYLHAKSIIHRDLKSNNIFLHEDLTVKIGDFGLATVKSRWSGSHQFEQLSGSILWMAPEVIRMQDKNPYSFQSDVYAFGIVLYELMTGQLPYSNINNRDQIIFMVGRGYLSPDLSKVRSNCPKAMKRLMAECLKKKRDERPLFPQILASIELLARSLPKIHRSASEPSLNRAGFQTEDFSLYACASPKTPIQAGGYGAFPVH

[5] = molecular target: Dual specificity mitogen-activated protein kinase kinase 7 (Homo sapiens) (UniProt O14733); experiment: MAP2K7 SGC Tm panel (DSF); details: Compound concentration 20.0 uM
[6] = molecular target: B-cell lymphoma 6 protein (Homo sapiens, UniProt P41182); details: SUD4, Compound concentration 1.0 uM
[7] = molecular target: Serine/threonine-protein kinase haspin (Homo sapiens) (UniProt Q8TF76); experiment: GSG2 SGC Tm panel (DSF); details: Compound concentration 20.0 uM
Chain of Serine/threonine-protein kinase haspin (Homo sapiens) (Q8TF76 whole entry, the tested form may be a part): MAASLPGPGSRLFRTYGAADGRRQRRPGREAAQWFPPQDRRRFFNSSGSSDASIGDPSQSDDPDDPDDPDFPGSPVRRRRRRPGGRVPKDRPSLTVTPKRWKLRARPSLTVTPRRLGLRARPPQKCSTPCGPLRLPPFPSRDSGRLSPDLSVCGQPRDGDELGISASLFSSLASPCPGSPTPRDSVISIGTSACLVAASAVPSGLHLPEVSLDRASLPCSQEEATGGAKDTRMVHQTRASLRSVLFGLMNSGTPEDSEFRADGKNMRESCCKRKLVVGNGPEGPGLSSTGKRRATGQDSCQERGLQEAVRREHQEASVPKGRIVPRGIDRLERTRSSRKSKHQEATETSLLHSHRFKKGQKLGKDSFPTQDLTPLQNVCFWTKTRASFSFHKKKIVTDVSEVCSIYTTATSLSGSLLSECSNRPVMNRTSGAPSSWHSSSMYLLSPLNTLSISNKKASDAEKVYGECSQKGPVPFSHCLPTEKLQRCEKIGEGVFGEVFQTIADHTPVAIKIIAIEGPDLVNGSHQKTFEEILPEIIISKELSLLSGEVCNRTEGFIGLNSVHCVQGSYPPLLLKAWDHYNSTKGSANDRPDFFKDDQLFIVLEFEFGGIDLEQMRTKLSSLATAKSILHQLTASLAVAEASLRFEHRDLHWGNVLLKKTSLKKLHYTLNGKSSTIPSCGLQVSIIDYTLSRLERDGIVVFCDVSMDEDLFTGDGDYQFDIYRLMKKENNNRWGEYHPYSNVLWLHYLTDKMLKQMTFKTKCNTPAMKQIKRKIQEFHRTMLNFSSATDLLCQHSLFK

[8] = molecular target: T2, Zinc finger and BTB domain-containing protein 40 (Homo sapiens); details: OCI-Ly1, Compound concentration 1.0 uM
[9] = molecular target: Zinc finger and BTB domain-containing protein 14 (Homo sapiens) (UniProt O43829); details: SUD4, Compound concentration 1.0 uM
[10] = molecular target: Zinc finger and BTB domain-containing protein 21 (Homo sapiens) (UniProt Q9ULJ3); details: SUD4, Compound concentration 1.0 uM
Chain of Zinc finger and BTB domain-containing protein 21 (Homo sapiens) (Q9ULJ3 whole entry, the tested form may be a part): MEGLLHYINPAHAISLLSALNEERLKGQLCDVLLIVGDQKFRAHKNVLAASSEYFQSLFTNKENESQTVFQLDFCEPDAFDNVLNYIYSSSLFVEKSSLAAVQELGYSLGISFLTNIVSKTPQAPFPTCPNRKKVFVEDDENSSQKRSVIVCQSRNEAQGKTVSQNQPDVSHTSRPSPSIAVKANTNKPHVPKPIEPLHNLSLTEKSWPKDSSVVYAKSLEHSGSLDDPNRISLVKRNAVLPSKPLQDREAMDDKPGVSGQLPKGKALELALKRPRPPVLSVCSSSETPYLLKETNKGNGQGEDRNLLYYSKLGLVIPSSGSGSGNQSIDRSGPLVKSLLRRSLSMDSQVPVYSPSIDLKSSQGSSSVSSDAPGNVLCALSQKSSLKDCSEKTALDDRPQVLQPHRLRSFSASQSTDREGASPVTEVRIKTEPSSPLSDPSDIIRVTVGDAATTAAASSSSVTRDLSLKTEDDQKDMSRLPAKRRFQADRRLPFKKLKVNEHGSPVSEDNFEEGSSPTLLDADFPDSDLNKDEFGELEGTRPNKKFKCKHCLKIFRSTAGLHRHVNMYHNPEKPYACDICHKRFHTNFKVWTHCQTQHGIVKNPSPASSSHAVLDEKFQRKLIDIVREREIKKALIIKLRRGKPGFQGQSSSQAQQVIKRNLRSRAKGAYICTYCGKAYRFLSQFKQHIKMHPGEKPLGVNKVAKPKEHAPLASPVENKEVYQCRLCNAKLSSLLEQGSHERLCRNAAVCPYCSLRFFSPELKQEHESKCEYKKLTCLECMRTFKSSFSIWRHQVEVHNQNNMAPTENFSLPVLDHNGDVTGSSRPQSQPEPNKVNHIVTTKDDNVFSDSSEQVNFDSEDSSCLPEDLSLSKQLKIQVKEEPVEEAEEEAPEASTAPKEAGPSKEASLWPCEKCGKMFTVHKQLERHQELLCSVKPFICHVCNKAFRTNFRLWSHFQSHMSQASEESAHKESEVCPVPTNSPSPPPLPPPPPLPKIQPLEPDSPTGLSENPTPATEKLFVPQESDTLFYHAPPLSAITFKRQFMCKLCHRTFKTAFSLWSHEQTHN

[11] = molecular target: Ribosomal protein S6 kinase alpha-5 (Homo sapiens) (UniProt O75582); experiment: RPS6KA5 SGC Tm panel (DSF); details: Compound concentration 20.0 uM
Chain of Ribosomal protein S6 kinase alpha-5 (Homo sapiens) (O75582 whole entry, looked up): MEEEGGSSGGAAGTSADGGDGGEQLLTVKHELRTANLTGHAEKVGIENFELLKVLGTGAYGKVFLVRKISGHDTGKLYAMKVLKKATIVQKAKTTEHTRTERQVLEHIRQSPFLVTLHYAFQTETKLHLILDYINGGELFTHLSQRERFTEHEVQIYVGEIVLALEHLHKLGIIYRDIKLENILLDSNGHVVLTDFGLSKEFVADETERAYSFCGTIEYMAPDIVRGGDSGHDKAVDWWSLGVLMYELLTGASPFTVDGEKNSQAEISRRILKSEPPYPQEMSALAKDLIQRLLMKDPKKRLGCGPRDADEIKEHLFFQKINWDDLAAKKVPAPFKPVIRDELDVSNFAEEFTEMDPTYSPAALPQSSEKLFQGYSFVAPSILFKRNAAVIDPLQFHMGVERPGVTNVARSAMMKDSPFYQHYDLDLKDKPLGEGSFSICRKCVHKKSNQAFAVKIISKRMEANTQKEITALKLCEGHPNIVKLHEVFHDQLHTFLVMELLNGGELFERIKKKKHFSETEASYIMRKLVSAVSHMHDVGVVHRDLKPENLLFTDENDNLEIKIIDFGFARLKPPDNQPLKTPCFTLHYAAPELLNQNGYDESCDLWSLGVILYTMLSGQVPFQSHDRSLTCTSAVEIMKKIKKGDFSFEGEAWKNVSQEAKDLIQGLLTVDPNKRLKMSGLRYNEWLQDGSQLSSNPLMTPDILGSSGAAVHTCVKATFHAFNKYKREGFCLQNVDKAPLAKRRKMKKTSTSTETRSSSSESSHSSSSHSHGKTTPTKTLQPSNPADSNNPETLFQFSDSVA

[12] = molecular target: Serine/threonine-protein kinase Nek7 (Homo sapiens) (UniProt Q8TDX7); experiment: NEK7 SGC Tm panel (DSF); details: Compound concentration 20.0 uM
Chain of Serine/threonine-protein kinase Nek7 (Homo sapiens) (Q8TDX7 whole entry, looked up): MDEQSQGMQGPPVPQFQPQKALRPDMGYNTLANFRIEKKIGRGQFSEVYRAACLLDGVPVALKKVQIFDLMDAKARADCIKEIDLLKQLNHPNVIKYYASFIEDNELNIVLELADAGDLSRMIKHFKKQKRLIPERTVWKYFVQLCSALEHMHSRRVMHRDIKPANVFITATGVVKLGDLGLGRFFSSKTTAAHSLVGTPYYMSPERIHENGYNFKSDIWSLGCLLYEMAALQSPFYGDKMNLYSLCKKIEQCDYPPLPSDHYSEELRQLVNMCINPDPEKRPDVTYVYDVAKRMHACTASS

[13] = molecular target: Adenosine receptor A1 (Homo sapiens, UniProt P30542); experiment: (§1) GPCRScan assay: inhibition of A1; design: radioligand conc. used [nm] 5.0, parental cells HEKT
Chain of Adenosine receptor A1 (P30542 whole entry): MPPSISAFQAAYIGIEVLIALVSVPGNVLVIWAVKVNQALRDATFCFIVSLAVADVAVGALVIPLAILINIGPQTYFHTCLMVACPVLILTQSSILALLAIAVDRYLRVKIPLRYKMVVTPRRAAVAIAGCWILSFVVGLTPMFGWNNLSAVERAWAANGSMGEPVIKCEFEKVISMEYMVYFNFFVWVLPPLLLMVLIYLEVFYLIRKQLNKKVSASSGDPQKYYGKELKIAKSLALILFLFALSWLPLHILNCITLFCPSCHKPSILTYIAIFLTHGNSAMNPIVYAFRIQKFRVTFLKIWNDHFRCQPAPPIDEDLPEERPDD

[14] = molecular target: Adenosine receptor A1 (Homo sapiens) (UniProt P30542); experiment: as §1; design: radioligand conc. used [nm] 5.0, parental cells HEKT; details: Compound concentration 10.0 uM
Chain of Adenosine receptor A1 (Homo sapiens) (P30542 whole entry): as above

[15] = molecular target: Transcription regulator protein BACH2 (Homo sapiens) (UniProt Q9BYV9); details: OCI-Ly1, Compound concentration 1.0 uM
Chain of Transcription regulator protein BACH2 (Homo sapiens) (Q9BYV9 whole entry, the tested form may be a part): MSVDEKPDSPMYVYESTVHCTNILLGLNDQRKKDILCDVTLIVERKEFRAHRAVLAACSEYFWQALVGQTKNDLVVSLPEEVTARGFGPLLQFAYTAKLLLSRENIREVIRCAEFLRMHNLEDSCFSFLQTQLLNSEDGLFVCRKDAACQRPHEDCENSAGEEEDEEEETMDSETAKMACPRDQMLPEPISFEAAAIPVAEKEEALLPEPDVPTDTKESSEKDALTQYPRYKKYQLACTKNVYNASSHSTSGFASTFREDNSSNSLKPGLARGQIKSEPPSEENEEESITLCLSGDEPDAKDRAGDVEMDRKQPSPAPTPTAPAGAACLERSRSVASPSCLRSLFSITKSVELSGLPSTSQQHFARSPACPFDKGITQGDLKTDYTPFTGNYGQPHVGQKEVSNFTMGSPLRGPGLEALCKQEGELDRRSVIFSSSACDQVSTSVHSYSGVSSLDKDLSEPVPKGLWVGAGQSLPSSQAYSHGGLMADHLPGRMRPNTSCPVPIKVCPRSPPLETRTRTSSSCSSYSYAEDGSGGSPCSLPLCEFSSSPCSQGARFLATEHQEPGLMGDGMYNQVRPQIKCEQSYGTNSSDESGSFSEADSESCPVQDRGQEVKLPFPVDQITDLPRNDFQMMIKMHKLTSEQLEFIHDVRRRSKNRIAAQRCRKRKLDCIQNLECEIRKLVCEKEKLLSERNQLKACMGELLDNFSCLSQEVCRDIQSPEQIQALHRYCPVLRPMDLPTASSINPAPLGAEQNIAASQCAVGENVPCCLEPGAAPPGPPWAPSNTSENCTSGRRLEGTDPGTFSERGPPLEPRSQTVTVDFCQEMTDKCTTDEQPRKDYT

[16] = molecular target: Zinc finger and BTB domain-containing protein 21 (Homo sapiens) (UniProt Q9ULJ3); details: SUD4, Compound concentration 1.0 uM; remark: listed apart in the source

C[C@@H]1CN(c2ncc(Cl)c(Nc3ccc4c(c3)n(CCC(C)(C)O)c(=O)n4C)n2)C[C@H](C)C1(F)F
Tm [1]: 41 °C | LogFC [2]: -0.0251 | LogFC [3]: -0.00123 | Tm [4]: 39 °C | Tm [5]: 44 °C | LogFC [6]: -1.13 | Tm [7]: 45 °C | LogFC [8]: -0.194 | LogFC [9]: 0.0306 | LogFC [10]: 0.0103 | Tm [11]: 37 °C | Tm [12]: 42 °C | Ki ([13]; read-out: Ki): 1.63 µM | Ki ([13]; read-out: pKi (converted)): 1.1 µM | inhibition [14]: 93.1% | LogFC [15]: -0.00139 | LogFC [16]: 0.0189

Reference: ChEMBL document CHEMBL5058646 (2022)
